Measurements as given in patent US11873287B2, “Piperidine-2,6-dione derivatives and ulcerative colitis treating” (TIANJIN HEMAY PHARMACEUTICAL SCI-TECH CO., LTD, priority 2016, dated 2024).

Experiments:
[1] = tested on: DSS-Induced inflammatory Bowel Disease Models in Mice; test: DSS-induced inflammatory bowel disease model in mice (Biological Example 4, 1.3% DSS); assay type: in vivo, C57BL/6 mice; conditions: 30 mg/Kg i.g. Q.D; for Average Length of Colon (Mean ± SD) / Inhibitory Rate of Colonic Reduction: 1.3% DSS days 0-5
Description: (§1) 40 healthy female C57BL/6 mice having weight of 16-19 g were randomly divided into 4 groups in accordance with weight. There were 10 mice in each group (see Table 6 below). The first day of the experiment was recorded as Day 0. The administration regimen and induction regimen were detailed in Table 6. The change in weight of experimental animals was recorded every day. […] Samples of animal colonic tissues were obtained to measure the length. One-way ANOVA analysis of mice weights was performed by SPSS22. Statistical analyses between groups were performed. Mann-Whitney U non-parametric test was performed on the length of colon.
The experimental method used in the present biological example is identical to those in Biological Example 3.
(§2) Calculation Formula of Inhibitory Rate of Colonic Reduction: (Length of Colon in Administration Group−Length of Colon in Model Group)/(Length of Colon in Blank Group−Length of Colon in Model Group)

ICR mice = test: Acute toxicity experiment of single oral administration in mice; assay type: in vivo; conditions: 1000 mg/Kg single oral dose
Description: The mice were fasted one day before the experiment. On the day of the experiment, 6 mice (ICR mice, body weight of 19-21 g, three females and three males) were selected in each experiment group. First of all, one female and one male were selected to orally give 1000 mg/Kg, and observed for 5-10 minutes. If there were no obvious side effects, the remaining 4 animals were orally given the same dose, and observed for 10-15 minutes. If no animal died, the animals were placed in a box to balancedly feed for 7 days. The state was observed and the body weight was recorded daily.
Observation Indexes within 0-15 Minutes After Administration
Activity: restlessness, hyperactivity
Nervous system response: tremor, spasm, convulsion, ataxia, posture abnormality, etc.
Autonomic nerve: exophthalmos, salivation, tears, urination (hematuria), diarrhea, piloerection, breathing, etc.
Observation Indexes Over 7 Days
State of Animal: lethargy, hyperactivity, excitement, hair loss, diarrhea, abnormal behavior, death, etc.

[2] = tested on: DSS-Induced inflammatory Bowel Disease Models in Mice; test: DSS-induced inflammatory bowel disease model in mice (Biological Example 3, 1.0-1.5% DSS); assay type: in vivo, C57BL/6 mice; conditions: 30 mg/Kg i.g. Q.D
Description: as §1, §2

[3] = DSS 1.0% days 0-4, 1.5% days 5-9

Row | Structure (SMILES) | Average Length of Colon (Mean ± SD) [1] [cm] | Inhibitory Rate of Colonic Reduction [1] [%] | Weights of Experimental Mice (Mean ± SD) ([1]; Day 0) [g] | Weights of Experimental Mice (Mean ± SD) ([1]; Day 1) [g] | Weights of Experimental Mice (Mean ± SD) ([1]; Day 2) [g] | Weights of Experimental Mice (Mean ± SD) ([1]; Day 3) [g] | Weights of Experimental Mice (Mean ± SD) ([1]; Day 4) [g] | Weights of Experimental Mice (Mean ± SD) ([1]; Day 5) [g] | Weights of Experimental Mice (Mean ± SD) ([1]; Day 6) [g] | Weights of Experimental Mice (Mean ± SD) ([1]; Day 7) [g] | Weights of Experimental Mice (Mean ± SD) ([1]; Day 8) [g] | Weights of Experimental Mice (Mean ± SD) ([1]; Day 9) [g] | Daily Body Weight of Tested Female Mice (Mean ± SD) (ICR mice; Day 1) [g] | Daily Body Weight of Tested Male Mice (Mean ± SD) (ICR mice; Day 1) [g] | Daily Body Weight of Tested Female Mice (Mean ± SD) (ICR mice; Day 2) [g] | Daily Body Weight of Tested Male Mice (Mean ± SD) (ICR mice; Day 2) [g] | Daily Body Weight of Tested Female Mice (Mean ± SD) (ICR mice; Day 3) [g] | Daily Body Weight of Tested Male Mice (Mean ± SD) (ICR mice; Day 3) [g] | Daily Body Weight of Tested Female Mice (Mean ± SD) (ICR mice; Day 4) [g] | Daily Body Weight of Tested Male Mice (Mean ± SD) (ICR mice; Day 4) [g] | also measured
1 | CNc1cccc2c1C(=O)N(C1CCC(=O)N(CCOC)C1=O)C2=O (stereo not shown) [Example 2, 4-methylamino-2-(1-(2-methoxyethyl)-2,6-dioxopiperidin-3-yl)isoindolin-1,3-dione] | 6.9 ± 0.2 | 66.7 | 20.1 ± 0.8 | 20.0 ± 0.7 | 19.8 ± 0.6 | 20.2 ± 0.8 | 20.2 ± 0.8 | 20.0 ± 0.6 | 18.9 ± 0.6 | 18.8 ± 0.7 | 18.8 ± 1.0 | 19.0 ± 1.1 | 19.2 ± 0.5 | 18.6 ± 0.5 | 22.7 ± 0.6 | 24.1 ± 0.4 | 23.2 ± 0.5 | 24.7 ± 0.2 | 23.2 ± 0.5 | 24.7 ± 0.2 | Daily Body Weight of Tested Female Mice (Mean ± SD) (ICR mice; Day 5): 24.4 ± 0.2 g; Daily Body Weight of Tested Male Mice (Mean ± SD) (ICR mice; Day 5): 26.2 ± 0.6 g; Daily Body Weight of Tested Female Mice (Mean ± SD) (ICR mice; Day 6): 24.6 ± 1.1 g; Daily Body Weight of Tested Male Mice (Mean ± SD) (ICR mice; Day 6): 28.8 ± 0.5 g; Daily Body Weight of Tested Female Mice (Mean ± SD) (ICR mice; Day 7): 24.5 ± 1.9 g; Daily Body Weight of Tested Male Mice (Mean ± SD) (ICR mice; Day 7): 29.2 ± 0.8 g; Summary of toxic response of tested animals in 7 Days (ICR mice; Female): Abnormality was not observed in 7 days of the test; Summary of toxic response of tested animals in 7 Days (ICR mice; Male): Slight abnormality of activity was occasionally observed in two
2 | Nc1cccc2c1C(=O)N(C1CCC(=O)N(CCO)C1=O)C2=O (stereo not shown) [Example 6, 4-amino-2-(1-(2-hydroxyethyl)-2,6-dioxopiperidin-3-yl)isoindolin-1,3-dione] | 6.9 ± 0.3 | 66.7 | 19.8 ± 0.6 | 19.9 ± 0.7 | 19.7 ± 0.7 | 20.0 ± 0.6 | 20.0 ± 0.6 | 19.9 ± 0.7 | 19.5 ± 0.6 | 19.4 ± 0.8 | 19.5 ± 0.7 | 19.6 ± 1.1 | 17.5 ± 0.9 | 18.4 ± 0.6 | 21.5 ± 0.9 | 21.5 ± 0.9 | 21.6 ± 1.3 | 21.6 ± 1.3 | 22.0 ± 1.2 | 25.5 ± 0.5 | Daily Body Weight of Tested Female Mice (Mean ± SD) (ICR mice; Day 5): 22.3 ± 1.9 g; Daily Body Weight of Tested Male Mice (Mean ± SD) (ICR mice; Day 5): 25.9 ± 0.9 g; Daily Body Weight of Tested Female Mice (Mean ± SD) (ICR mice; Day 6): 22.4 ± 2.3 g; Daily Body Weight of Tested Male Mice (Mean ± SD) (ICR mice; Day 6): 26.9 ± 1.1 g; Daily Body Weight of Tested Female Mice (Mean ± SD) (ICR mice; Day 7): 22.9 ± 2.0 g; Daily Body Weight of Tested Male Mice (Mean ± SD) (ICR mice; Day 7): 27.1 ± 1.1 g; Summary of toxic response of tested animals in 7 Days (ICR mice; Female): Abnormality was not observed in 7 days of the test; Summary of toxic response of tested animals in 7 Days (ICR mice; Male): Abnormality was not observed in 7 days of the test
3 | COCCN1C(=O)CCC(N2C(=O)c3ccc(N)cc3C2=O)C1=O (stereo not shown) [Example 7, 5-amino-2-(1-(2-methoxyethyl)-2,6-dioxopiperidin-3-yl)isoindolin-1,3-dione] | – | – | – | – | – | – | – | – | – | – | – | – | – | – | – | – | – | – | – | – | body weights compared with model control group [2]: higher than that of the model control group; Average Length of Colon (Mean ± SD) [2, 3]: 6.4 ± 0.4 cm; Inhibitory Rate of Colonic Reduction [2, 3]: 63.6%; Body Weights of Experimental Mice (Mean ± SD) ([2]; Day 0): 17.4 ± 0.8 g; Body Weights of Experimental Mice (Mean ± SD) ([2]; Day 1): 17.5 ± 0.7 g; Body Weights of Experimental Mice (Mean ± SD) ([2]; Day 2): 18.2 ± 0.8 g; Body Weights of Experimental Mice (Mean ± SD) ([2]; Day 3): 17.8 ± 0.8 g; Body Weights of Experimental Mice (Mean ± SD) ([2]; Day 4): 17.7 ± 0.7 g; Body Weights of Experimental Mice (Mean ± SD) ([2]; Day 5): 17.9 ± 0.8 g; Body Weights of Experimental Mice (Mean ± SD) ([2]; Day 6): 17.8 ± 0.8 g; Body Weights of Experimental Mice (Mean ± SD) ([2]; Day 7): 17.9 ± 0.8 g; Body Weights of Experimental Mice (Mean ± SD) ([2]; Day 8): 17.4 ± 0.7 g; Body Weights of Experimental Mice (Mean ± SD) ([2]; Day 9): 17.4 ± 0.7 g; Body Weights of Experimental Mice (Mean ± SD) ([2]; Day 10): 16.8 ± 0.9 g; Body Weights of Experimental Mice (Mean ± SD) ([2]; Day 11): 16.8 ± 1.0 g; Body Weights of Experimental Mice (Mean ± SD) ([2]; Day 12): 17.3 ± 1.0 g
4 | CCOCCN1C(=O)CCC(N2C(=O)c3cccc(N)c3C2=O)C1=O (stereo not shown) [Example 19, 4-amino-2-(1-(2-ethoxyethyl)-2,6-dioxopiperidin-3-yl)isoindolin-1,3-dione] | 6.9 ± 0.4 | 66.7 | 19.6 ± 0.7 | 19.6 ± 0.8 | 19.7 ± 0.7 | 19.9 ± 0.7 | 20.0 ± 0.7 | 19.7 ± 0.5 | 19.2 ± 0.7 | 18.9 ± 0.8 | 19.0 ± 1.0 | 19.4 ± 0.8 | 18.0 ± 0.6 | 18.9 ± 1.2 | 20.7 ± 1.1 | 20.7 ± 1.1 | 21.3 ± 0.6 | 21.3 ± 0.6 | 22.8 ± 0.3 | 25.0 ± 2.0 | Daily Body Weight of Tested Female Mice (Mean ± SD) (ICR mice; Day 5): 23.2 ± 0.7 g; Daily Body Weight of Tested Male Mice (Mean ± SD) (ICR mice; Day 5): 24.8 ± 1.9 g; Daily Body Weight of Tested Female Mice (Mean ± SD) (ICR mice; Day 6): 23.3 ± 1.2 g; Daily Body Weight of Tested Male Mice (Mean ± SD) (ICR mice; Day 6): 26.5 ± 1.9 g; Daily Body Weight of Tested Female Mice (Mean ± SD) (ICR mice; Day 7): 23.0 ± 1.7 g; Daily Body Weight of Tested Male Mice (Mean ± SD) (ICR mice; Day 7): 27.7 ± 2.2 g; Summary of toxic response of tested animals in 7 Days (ICR mice; Female): Severe motor dysfunction in three animals was observed 30; Summary of toxic response of tested animals in 7 Days (ICR mice; Male): Severe motor dysfunction in two animals was observed 30
